These are literature values, as cited in patent US20160303203A1, “COMPOSITIONS AND METHODS FOR THE TREATMENT OF WOUNDS” (priority 2013, published 2016).

The subject of the series is diabetic ulcers. To be noted: patients with diabetic ulcers treated with phenytoin; control group 45 days.

As to `O=C1NC(=O)C(c2ccccc2)(c2ccccc2)N1` [phenytoin, 5.5-diphenyl-2,4-imidazolidinedione], the mean healing time is on record as 21 days.
